Experimental data as given in patent US20260132125A1, “PESTICIDALLY ACTIVE FUSED BICYCLIC HETEROAROMATIC COMPOUNDS” (priority 2022, published 2026).

Tests used:
Format in all cases: in vivo
Plutella xylostella [1] = test: B14b: Plutella xylostella (diamond back moth), larvicide L3, feeding/contact, Chinese cabbage
Text: (§1) Activity of compounds P5, P17 and P21 according to the preparatory examples and of a compound from WO 21/083936 against Spodoptera littoralis (Example B6 above), Chilo suppressalis (Example B1 above), Diabrotica balteata (Example B14a below), Plutella xylostella (Example B14b below) and Pseudoplusia includens (Example B9 above) is summarized in Table B14. B14a: Diabrotica balteata (Corn root worm). Larvicide, feeding/contact 3 Corn seedlings were placed on wetted filter paper in plastic cups, and 3 ml of diluted test solutions were pipetted onto them. The cups were infested with 10 L2 larvae and checked for mortality and growth regulation 5 days after treatment. B14b: Plutella xylostella (Diamond back moth). Larvicide L3, feeding/contact Chinese cabbage plants were sprayed with diluted test solutions in an application chamber. Cut off leaves were placed into petri dishes with wetted filter paper and infested 1 day after application with 10 L3 larvae. Samples were assessed 4 days after infestation for mortality and growth regulation.

Chilo suppressalis = test: Example B1: activity against Chilo suppressalis (striped rice stemborer), artificial diet; conditions: for percent control (mortality, anti-feedant effect or growth inhibition) at 200 ppm: 144 h, L2 larvae, 6 days after infestation, read-out: control (at least one of mortality, anti-feedant effect, growth inhibition)
Procedure, shortened: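 Scoring covers mortality, anti-feedant effect and growth inhibition at 6 days post-infestation, relative to untreated diet, with activity defined as at least one category above untreated. Test solutions were aqueous, made from 10'000 ppm DMSO stocks, and applied to artificial diet before drying and infestation with L2 larvae.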

Pseudoplusia includens = test: Example B9: Pseudoplusia includens (soybean looper), larvicide, feeding/contact, soybean plants; conditions: Chrysodeixis includens; for percent effect (mortality or growth inhibition) at 50 ppm: 120 h, L2 larvae, 5 days after infestation, read-out: effect in at least one of the two categories (mortality or growth inhibition)
Procedure, shortened: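 Soybean plants sprayed, cut and held in dishes on wet filter paper; infested 1 d after application with 5 L2 larvae. Mortality and growth inhibition assessed 5 days after infestation; tested at 50 ppm.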

Diabrotica balteata [2] = test: B14a: Diabrotica balteata (corn root worm), larvicide, feeding/contact, corn seedlings
Text: as §1

Euschistus heros = test: Example B3: activity against Euschistus heros (neotropical brown stink bug), soybean leaves; conditions: for percent effect (mortality or growth inhibition) at 200 ppm: 120 h, N2 nymphs, 5 days after infestation, read-out: effect in at least one of the two categories (mortality or growth inhibition)
Procedure, shortened: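 Soybean leaves on agar sprayed with aqueous dilutions of DMSO stock (10′000 ppm), dried, then infested with N2 nymphs. Mortality and growth inhibition scored against untreated samples 5 days after infestation; application rate 200 ppm.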

Spodoptera littoralis = test: Example B6: activity against Spodoptera littoralis (Egyptian cotton leaf worm), cotton leaf discs; conditions: foliar; for percent control (mortality, anti-feedant effect or growth inhibition) at 200 ppm: 72 h, L1 larvae, 3 days after infestation, read-out: control (at least one of mortality, anti-feedant effect, growth inhibition)
Procedure, shortened: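 Leaf discs on agar; spray, aqueous dilution of 10′000 ppm DMSO stock; dry; 5 L1 larvae/disc. Read at 3 d post-infestation: mortality, antifeedant, growth inhibition vs untreated. Control = ≥1 category above untreated.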

Plutella xylostella [3] = test: Example B5: activity against Plutella xylostella (diamond back moth), artificial diet, eggs; conditions: 192 h, 8 days after infestation, read-out: effect in at least one of the two categories (mortality or growth inhibition)
Procedure, shortened: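 Artificial diet in 24-well plates was treated with aqueous dilutions of DMSO stocks, dried, then infested with Plutella eggs. Mortality and growth inhibition were scored against untreated samples 8 days after infestation; application rate 200 ppm.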

Diabrotica balteata [4] = test: Example B2: activity against Diabrotica balteata (corn root worm), maize sprouts; conditions: 96 h, L2 larvae, 4 days after infestation, read-out: effect in at least one of the two categories (mortality or growth inhibition)
Procedure, shortened: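 Maize sprouts on agar were sprayed with aqueous test solutions made from 10′000 ppm DMSO stocks, dried, then infested with 6–10 L2 larvae per well. Mortality and growth inhibition were scored against untreated samples 4 days after infestation, at an application rate of 200 ppm.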

Myzus persicae [5] = test: Example B4: activity against Myzus persicae (green peach aphid), intrinsic activity; conditions: 120 h, test rate 12 ppm, 5 days after infestation
Procedure, shortened: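 Compounds from 10′000 ppm DMSO stocks were mixed into sucrose solution in 24-well plates sealed with Parafilm. Aphid-infested pea seedlings were set on the membrane and the plate inverted so aphids fed through it. Mortality scored 5 days after infestation.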

[6] = system: Carpocapsa (Cydia) pomonella; test: Example B10: Carpocapsa (Cydia) pomonella (codling moth), larvicide, feeding/contact, diet cubes; conditions: 336 h, L1 larvae, 14 days after infestation, read-out: effect in at least one of the two categories (mortality or growth inhibition)
Method: Diet cubes coated with paraffin were sprayed with diluted test solutions in an application chamber. After drying off the treated cubes (10 replicates) were infested with 1 L1 larvae. Samples were incubated at 26-27° C. and checked 14 days after infestation for mortality and growth inhibition. The following compounds gave an effect of at least 80% in at least one of the two categories (mortality or growth inhibition) at an application rate of 50 ppm: […]

Tetranychus urticae = test: Example B8: activity against Tetranychus urticae (two-spotted spider mite), bean leaf discs; conditions: foliar, 192 h, mixed population (mobile stages), 8 days after infestation
Method: Bean leaf discs on agar in 24-well microtiter plates were sprayed with aqueous test solutions prepared from 10′000 ppm DMSO stock solutions. After drying the leaf discs were infested with a mite population of mixed ages. The samples were assessed for mortality on mixed population (mobile stages) 8 days after infestation.

Myzus persicae [7] = test: Example B7a: Myzus persicae feeding/contact activity, sunflower leaf discs; conditions: foliar, 144 h, mixed ages, 6 days after infestation
Method: (§2) Sunflower leaf discs were placed onto agar in a 24-well microtiter plate and sprayed with aqueous test solutions prepared from 10′000 ppm DMSO stock solutions. After drying, the leaf discs were infested with an aphid population of mixed ages. The samples were assessed for mortality 6 days after infestation.

Myzus persicae [8] = test: Example B7b: Myzus persicae feeding/contact activity, eggplant leaf discs; conditions: foliar, 144 h, mixed ages, 6 days after infestation
Method: as §2, with “Eggplant” for “Sunflower”

Compound | mortality at 0.8 ppm (Plutella xylostella [1]) [%] | mortality at 3 ppm (Plutella xylostella [1]) [%] | mortality at 3.12 ppm (Chilo suppressalis) [%] | percent control (mortality, anti-feedant effect or growth inhibition) at 200 ppm (Chilo suppressalis) [%] | percent effect (mortality or growth inhibition) at 50 ppm (Pseudoplusia includens) [%] | mortality at 0.8 ppm (Pseudoplusia includens; Pseudoplusia includens, 0.8 ppm) [%] | mortality at 12.5 ppm (Pseudoplusia includens; Pseudoplusia includens) [%] | mortality at 0.8 ppm (Diabrotica balteata [2]) [%] | mortality at 200 ppm (Euschistus heros) [%] | percent effect (mortality or growth inhibition) at 200 ppm (Euschistus heros) [%] | mortality at 3.12 ppm (Spodoptera littoralis) [%] | percent control (mortality, anti-feedant effect or growth inhibition) at 200 ppm (Spodoptera littoralis) [%] | percent effect (mortality or growth inhibition) at 200 ppm (Plutella xylostella [3]) [%] | percent effect (mortality or growth inhibition) at 200 ppm (Diabrotica balteata [4]) [%] | mortality at 12 ppm (Myzus persicae [5]) [%] | percent effect (mortality or growth inhibition) at 50 ppm [6] [%] | mortality at 200 ppm (Tetranychus urticae) [%] | mortality at 200 ppm (Myzus persicae [7]) [%] | mortality at 3 ppm (Pseudoplusia includens; Pseudoplusia includens, 3 ppm) [%] | mortality at 200 ppm (Myzus persicae [8]) [%]
C[C@H](Nc1ncnc2c(C(F)(F)F)cc(Cl)cc12)c1ncnn1-c1cc(C(N)=O)ncn1 [Compound P5, 6-[5-[(1S)-1-[[6-chloro-8-(trifluoromethyl)quinazolin-4-yl]amino]ethyl]-1,2,4-triazol-1-yl]pyrimidine-4-carboxamide] | 95 | 100 | 80 | ≥ 80 | ≥ 80 | 70 | 100 | 100 | 100 | ≥ 80 | 100 | ≥ 80 | ≥ 80 | ≥ 80 | ≥ 80 | – | – | – | – | –
C[C@H](Nc1ncnc2c(I)cc(Cl)cc12)c1ncnn1-c1cc(C(N)=O)ncn1 [Compound P13, 6-[5-[(1S)-1-[(6-chloro-8-iodo-quinazolin-4-yl)amino]ethyl]-1,2,4-triazol-1-yl]pyrimidine-4-carboxamide] | – | – | – | ≥ 80 | ≥ 80 | – | – | – | – | – | – | ≥ 80 | ≥ 80 | ≥ 80 | ≥ 80 | ≥ 80 | ≥ 80 | ≥ 80 | – | –
C[C@H](Nc1ncnc2c(Cl)cc(C(F)(F)F)cc12)c1ncnn1-c1cc(C(N)=O)ncn1 [Compound P17, 6-[5-[(1S)-1-[[8-chloro-6-(trifluoromethyl)quinazolin-4-yl]amino]ethyl]-1,2,4-triazol-1-yl]pyrimidine-4-carboxamide] | 100 | 100 | 40 | ≥ 80 | ≥ 80 | – | 100 | 100 | 80 | ≥ 80 | 100 | ≥ 80 | ≥ 80 | ≥ 80 | ≥ 80 | ≥ 80 | ≥ 80 | – | 80 | –
C[C@H](Nc1ncnc2c(C(F)(F)F)cc(Cl)cc12)c1ncnn1-c1cnc(C(N)=O)cn1 [Compound P21, 5-[5-[(1S)-1-[[6-chloro-8-(trifluoromethyl)quinazolin-4-yl]amino]ethyl]-1,2,4-triazol-1-yl]pyrazine-2-carboxamide] | – | 100 | 0 | ≥ 80 | ≥ 80 | – | 40 | 65 | – | – | 100 | ≥ 80 | ≥ 80 | ≥ 80 | ≥ 80 | – | – | – | – | ≥ 80
C[C@@H](c1ncnn1-c1cc(C(N)=O)ncn1)N(C)c1ncnc2c(C(F)(F)F)cc(Cl)cc12 [Compound P50, 6-[5-[(1S)-1-[[6-chloro-8-(trifluoromethyl)quinazolin-4-yl]-methyl-amino]ethyl]-1,2,4-triazol-1-yl]pyrimidine-4-carboxamide] | – | – | – | ≥ 80 | ≥ 80 | – | – | – | – | ≥ 80 | – | ≥ 80 | ≥ 80 | ≥ 80 | ≥ 80 | – | ≥ 80 | – | – | ≥ 80
C[C@H](Nc1ncnc2c(C(F)(F)F)cc(C(F)(F)F)cc12)c1ncnn1-c1ccc(C(N)=O)cn1 [WO 21/083936 P.157, reference compound] | – | 65 | 0 | – | – | – | 10 | 35 | – | – | 0 | – | – | – | – | – | – | – | – | –
